Laboratory results from article PMC6015222, “Targeting Phosphopeptide Recognition by the Human BRCA1 Tandem BRCT Domain to Interrupt BRCA1-Dependent Signaling” (Cell Chemical Biology, 2018).
“Also recorded” adds a separate entry of the source.

How the values were obtained:
TOPBP1 foci = test: Radiation-induced TOPBP1 foci, U2OS cells; type: cell-based; settings: 100 μM added 6 h after irradiation
ECT2 BRCT = target: T1, ECT2 BRCT (Homo sapiens, UniProt Q9H8V3); test: Competitive MST selectivity: ECT2; type: binding
T1 construct: ECT2 BRCT residues 22-326; 6x His (N); made in house; host or cells: E. coli C41(DE3)
T1 sequence (Q9H8V3 22-326 isoform Q9H8V3-4): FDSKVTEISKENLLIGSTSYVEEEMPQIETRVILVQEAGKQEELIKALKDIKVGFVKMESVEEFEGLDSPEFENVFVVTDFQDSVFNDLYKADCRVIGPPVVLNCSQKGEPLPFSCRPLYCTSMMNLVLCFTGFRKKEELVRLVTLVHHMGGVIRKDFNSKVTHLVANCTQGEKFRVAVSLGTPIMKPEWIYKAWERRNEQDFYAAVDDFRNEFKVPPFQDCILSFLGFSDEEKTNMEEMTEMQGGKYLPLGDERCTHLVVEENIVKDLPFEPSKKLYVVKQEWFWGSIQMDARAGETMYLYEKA
Method: (§1) Protein domains used in the assay were labeled with NT-647-NHS fluorescent dye using the Monolith NT™ Protein Labeling Kit (NanoTemper Technologies). Assays were carried out in 20mM Tris buffer, pH 7.4, with 200mM NaCl, 0.05% Tween-20 and 2mM DTT. For the direct binding assay, 10μl of labeled protein at a final concentration of 20nM was mixed with 10μl of test compound and incubated on ice for 10 min. For the competitive assay, 10μl of labeled protein at a final concentration of 20nM was mixed with 2μM cognate peptide substrate at the EC80 concentration determined by prior titration using a 16-point serial dilution by direct-binding MST. For both assays, samples prepared as above were centrifuged at 15000 rpm at 4°C for 10 min and 4μl of the supernatant was loaded into premium glass capillaries (NanoTemper Technologies). MST analysis was performed at MST power of 40% and LED power of 80%, at 22°C temperature using a Monolith NT.115 (NanoTemper Technologies). An initial “Capillary Scan” was performed to scan for fluorescence across the length of the capillary tray to determine the exact position of each capillary before the MST measurement was started. Test compounds were assayed at 16 different concentrations by serial dilution, and data were analysed using NanoTemper analysis software. Kd values were determined using “T-jump + Thermophoresis” settings. […]

TOPBP1 BRCT 1/2 = target: T2, TOPBP1 BRCT 1/2 (Homo sapiens, UniProt Q92547); test: Competitive MST selectivity: TOPBP1 1/2; type: binding
T2 construct: TOPBP1 BRCT 1/2 residues 1-290; 6x His (N); made in house; host or cells: E. coli BL21(DE3)
Method: as §1

RPA32 foci = test: Radiation-induced nuclear RPA32 foci; type: cell-based, human; settings: 100 μM, 16 Gy, as Figure 5A
Method: (§2) HEK293 cells stably harboring plasmids for Tet-inducible expression of tBRCT domains were seeded at 30,000 cells/well on Matrigel-coated 96-well plates, and treated as indicated. Cells were fixed in 2.5% PFA, for 20’ at RT and incubated in 1x PBS with 10% FBS plus 0.5% TritonX-100 for 1 h for blocking and permeabilization. Primary antibody staining was performed at the indicated dilutions in PBST-BSA buffer (0.7mg/ml BSA, 0.05% Tween-20 in 1XPBS) for 1h at RT. Cells were then extensively washed in PBST-BSA buffer and stained with goat-anti-mouse Alexa 488 secondary antibody (Invitrogen), at 1:1000 dilution along with 2.5μg/ml DAPI for nuclear staining. […] Images were acquired on a high-content imaging platform (Cellomics ArrayScan VTI HCS Reader (Thermo Fisher Scientific)) using a 40x objective. On average ∼800 fields from 6-well replicates, containing a total of ∼10-20K cells were imaged per treatment group and quantified using image analysis software (in-house algorithms using MatLab and commercially available HCS studio 2.0 from Thermo Fisher Scientific). […] Cut-off values for foci number per cell specifying the maximal difference between control and irradiated samples were determined to calculate the percentage of cells positive for radiation-induced foci. […]

MDC1 foci = test: Radiation-induced nuclear MDC1 foci, HEK293 cells; type: cell-based, human; settings: 100 μM added 6 hr after 16 Gy
Method: as §2

cells = test: Cellular effects of Bractoppin, summary over the cell assays; type: cell-based
BRCA1 foci = test: Radiation-induced nuclear BRCA1 foci, high-content imaging, HEK293 cells; type: cell-based, human; settings: 100 μM added 6 hr after 16 Gy, staining 18 hr after irradiation
Method: as §2

RAD51 foci = test: Radiation-induced nuclear RAD51 foci; type: cell-based, human; settings: 100 μM, 16 Gy, as Figure 5A
Method: as §2

HEK293 cells = test: Cell cycle profiles by flow cytometry after 4 Gy (damage-induced G2 arrest); type: cell-based, human; settings: 10–100 μM Bractoppin or 100 μM CCBT2047 added 0.5 hr before radiation
Method: HEK293 cells stably harboring plasmids for Tet-inducible expression of tBRCT domains were seeded on 12-well plates at 1.8 X10^5 cells/well. Cells were thymidine blocked and synchronously released into the cell cycle following irradiation at 4Gy, without or with exposure to compounds (at final concentrations with 0.5% DMSO) in serum-containing media for 16 h. Cells were re-suspended in 1x PBS, fixed with 80% ethanol, and permeabilized in buffer containing 0.1% Tween-20 in PBS (PBST), for 20’ at RT. DAPI staining was used to quantify nuclear DNA content. Analysis was performed using a Beckman Coulter Gallios analyzer, and quantified using the Dean-Jet algorithm in FlowJo software.

BRCA1 tBRCT = target: T3, BRCA1 tBRCT (Homo sapiens, UniProt P38398); test: Competitive MST: inhibition of BACH1 phosphopeptide binding to BRCA1 tBRCT; settings: MST, BACH1 phosphopeptide vs BRCA1 tBRCT; mean ± SD of three experiments; NB, no binding
T3 construct: BRCA1 tBRCT residues 1646-1859; made in house; host or cells: E. coli BL21(DE3)
Method: Protein domains used in the assay were labeled with NT-647-NHS fluorescent dye using the Monolith NT™ Protein Labeling Kit (NanoTemper Technologies). Assays were carried out in 20mM Tris buffer, pH 7.4, with 200mM NaCl, 0.05% Tween-20 and 2mM DTT. For the direct binding assay, 10μl of labeled protein at a final concentration of 20nM was mixed with 10μl of test compound and incubated on ice for 10 min. For the competitive assay, 10μl of labeled protein at a final concentration of 20nM was mixed with 2μM cognate peptide substrate at the EC80 concentration determined by prior titration using a 16-point serial dilution by direct-binding MST. For both assays, samples prepared as above were centrifuged at 15000 rpm at 4°C for 10 min and 4μl of the supernatant was loaded into premium glass capillaries (NanoTemper Technologies). MST analysis was performed at MST power of 40% and LED power of 80%, at 22°C temperature using a Monolith NT.115 (NanoTemper Technologies). An initial “Capillary Scan” was performed to scan for fluorescence across the length of the capillary tray to determine the exact position of each capillary before the MST measurement was started. Test compounds were assayed at 16 different concentrations by serial dilution, and data were analysed using NanoTemper analysis software. Kd values were determined using “T-jump + Thermophoresis” settings. The change in thermophoresis between different experimental conditions was expressed as the change in the normalized fluorescence (ΔFnorm), which is defined as Fhot/Fcold (F-values correspond to average fluorescence values between defined areas in the curve under steady-state conditions under control (Fcold) or experimental (Fhot) conditions. Titration of the non-fluorescent ligand causes a gradual change in thermophoresis, which is plotted as ΔFnorm to yield a binding curve, which was then fitted to derive binding constants.

binding to fluorescently labeled ECT2 tBRCT domain (ECT2 BRCT): does not detectably bind
binding to fluorescently labeled TOPBP1 1/2 tBRCT domain (TOPBP1 BRCT 1/2): does not detectably bind
IC50 (BRCA1 tBRCT): 74 nM
Structure (SMILES): O=C(c1ccc2nc(-c3ccccc3)[nH]c2c1)N1CCN(Cc2ccccc2F)CC1 [Bractoppin, (4-(2-fluorobenzyl)piperazin-1-yl) (2-phenyl-1H-benzo[d]imidazol-6-yl) methanone]
effect on radiation-induced recruitment of TOPBP1 (TOPBP1 foci): little effect
effect on RPA32 accumulation (RPA32 foci): little effect
effect on radiation-induced accumulation of MDC1 at sites of DNA damage (MDC1 foci): little effect
concentration at which cellular effects are elicited (cells): 10 to 100 µM
effect on formation of radiation-induced BRCA1 foci (BRCA1 foci): inhibits the formation of radiation-induced BRCA1 foci; also recorded: selectively inhibits damage-induced BRCA1 foci formation
effect on IR-induced RAD51 foci (RAD51 foci): selectively suppresses
effect on damage-induced G2 arrest (HEK293 cells): inhibited in a dose-dependent manner
